The source of these data is patent EP0985409A1, “Cosmetic use of fatty acids” (Shiseido International France SA, priority 1998, dated 2000).

Assay [1] addresses T1, MMP-2 (Homo sapiens, UniProt P08253).
T1 sequence (P08253 110-660): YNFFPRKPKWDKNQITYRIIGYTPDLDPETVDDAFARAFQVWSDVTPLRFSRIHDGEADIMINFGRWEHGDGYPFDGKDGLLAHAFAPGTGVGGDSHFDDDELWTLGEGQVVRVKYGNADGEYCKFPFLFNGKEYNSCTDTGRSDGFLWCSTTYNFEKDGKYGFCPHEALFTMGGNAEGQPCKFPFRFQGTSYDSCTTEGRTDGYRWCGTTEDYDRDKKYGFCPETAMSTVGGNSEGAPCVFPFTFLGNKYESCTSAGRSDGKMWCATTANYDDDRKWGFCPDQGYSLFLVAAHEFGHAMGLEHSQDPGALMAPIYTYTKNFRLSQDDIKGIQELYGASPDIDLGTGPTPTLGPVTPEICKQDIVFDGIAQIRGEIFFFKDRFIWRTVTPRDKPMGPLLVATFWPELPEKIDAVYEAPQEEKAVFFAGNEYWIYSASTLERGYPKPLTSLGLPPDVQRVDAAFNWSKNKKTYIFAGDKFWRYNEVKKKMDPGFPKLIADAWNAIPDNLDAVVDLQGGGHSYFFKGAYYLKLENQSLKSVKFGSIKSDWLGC
In words: Inhibition of MMP enzymatic activity, hydrolysis of fluorescent synthetic substrate. The format is biochemical. The note with it: MMP-2, Gélatinase A. From the text:
(§1) On a démontré l'effet d'inhibition d'acides gras selon l'invention vis à vis de différentes métalloprotéinases matricielles. A cet effet, on a déterminé l'activité enzymatique de ces MMPs en utilisant un substrat synthétique fluorescent, le (7- méthoxycoumarine-4-yl) acétyl-Pro-Leu-Gly-Leu-(3-[2,4-dinitrophényl]-L-2,3-diaminopropionyl)-Ala-ArgNH2. Les MMPs peuvent cliver de façon spécifique la liaison amide qui lie les acides aminés Gly et Leu de ce substrat.
(§2) L'hydrolyse s'accompagne d'une augmentation sensible de la fluorescence qui peut être suivie et quantifiée à l'aide d'un spectrofluorimètre aux longueurs d'onde choisies. Suite à la rupture de la liaison Gly-Leu, le groupement dinitrophényl ne peut plus masquer la fluorescence du groupement 7-méthoxycoumarine.
(§3) On a réalisé cette hydrolyse du substrat par la MMP-2 et la MMP-9 en absence ou en présence de différentes concentrations d'acides gras selon l'invention. Les constantes d'inhibition (Ki) de l'activité enzymatique ont pu être ainsi déterminées. Les résultats obtenus figurent dans le Tableau I ci-dessous. Tableau I

In assay [2] the target is T2, MMP-9 (Homo sapiens, UniProt P14780). Described as above. The assay is classed as biochemical. As to conditions: MMP-9, Gélatinase B.
Description: as §1, §2, §3
Target sequence in this assay (P14780 94-707): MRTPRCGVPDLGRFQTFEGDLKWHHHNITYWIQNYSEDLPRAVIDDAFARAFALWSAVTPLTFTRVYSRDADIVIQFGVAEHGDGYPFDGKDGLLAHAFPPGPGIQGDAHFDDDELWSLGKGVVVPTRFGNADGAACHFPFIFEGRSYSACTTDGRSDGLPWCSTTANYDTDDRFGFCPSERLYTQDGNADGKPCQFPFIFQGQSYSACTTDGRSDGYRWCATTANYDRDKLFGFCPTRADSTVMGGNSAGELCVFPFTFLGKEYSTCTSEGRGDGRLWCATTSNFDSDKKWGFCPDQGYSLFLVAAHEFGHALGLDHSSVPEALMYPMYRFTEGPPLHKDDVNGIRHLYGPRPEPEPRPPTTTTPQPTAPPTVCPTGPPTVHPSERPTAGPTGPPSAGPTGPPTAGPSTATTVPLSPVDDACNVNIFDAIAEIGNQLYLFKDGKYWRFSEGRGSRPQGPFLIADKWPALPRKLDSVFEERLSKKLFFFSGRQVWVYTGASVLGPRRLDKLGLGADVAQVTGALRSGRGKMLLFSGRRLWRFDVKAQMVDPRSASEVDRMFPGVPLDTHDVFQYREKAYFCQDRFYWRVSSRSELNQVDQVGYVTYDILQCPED

In another assay the target is T3, élastase leucocytaire (Homo sapiens, UniProt P08246).
T3 construct: L'enzyme sous sa forme activée a été incubée pendant 15 min
T3 sequence (P08246 30-267): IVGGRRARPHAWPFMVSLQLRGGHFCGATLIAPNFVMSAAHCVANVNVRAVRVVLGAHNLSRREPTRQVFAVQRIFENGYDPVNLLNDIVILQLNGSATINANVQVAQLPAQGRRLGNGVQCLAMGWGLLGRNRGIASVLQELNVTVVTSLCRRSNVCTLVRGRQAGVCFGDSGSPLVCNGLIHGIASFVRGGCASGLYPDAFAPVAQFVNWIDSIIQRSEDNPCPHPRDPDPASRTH
In words: Ex vivo protection of elastic fibres: skin sections pre-incubated with fatty acid, then enzyme. The format is biochemical, humaine. The note with it: section pre-incubated with fatty acid; degradation of elastic fibres by élastase leucocytaire; concentration not given. From the text:
(§4) Les études ex vivo ont été réalisées sur des coupes de peau humaine issues de prépuces d'enfants âgés de 10 à 24 mois. Les coupes mises en oeuvre étaient des coupes de congélation de 8 µm d'épaisseur, sériées.
(§5) L'effet protecteur de la matrice extra-cellulaire a été déterminé de la façon suivante : les lames portant les coupes de peau ont été incubées sous agitation douce pendant 4 heures dans l'éthanol pur contenant l'acide gras selon l'invention à la concentration désirée. Puis les coupes ont été rincées et séchées. L'enzyme a alors été déposée sur la coupe, la lame a été mise à incuber en atmosphère humide à 37°C pendant 4 à 18 heures. A la fin de l'incubation, les lames ont été colorées avec les colorants spécifiques de l'élastine ou des collagènes mentionnés plus haut.
Les résultats obtenus ont été déterminés selon le principe de quantification suivant: les fibres élastiques ont été colorées de façon spécifique par la + catéchine, et ont été quantifiées grâce à un système morphométrique précis et automatisé. Les lames ont été observées sous microscope équipé d'une caméra. Les images générées ont été converties en niveaux de gris correspondant aux composants à étudier. Les plus petites particules ne correspondant pas à ces éléments ont été éliminées de l'analyse. […] L'aire occupée par les trousseaux collagéniques a pu être quantifiée selon la même procédure. […]

Assay [3] concerns the target T2, MMP-9. In words: Ex vivo inhibition of enzyme activity on human skin sections: elastic fibre hydrolysis, enzyme pre-incubated with fatty acid. The format is biochemical, humaine. More on the design: L'enzyme sous sa forme activée a été incubée pendant 15 min. As to conditions: for inhibition at 1 µM / inhibition at 10 µM: hydrolysis of elastic fibres by MMP-9, human skin sections, read-out: % d'inhibition; for inhibition de l'activité de la MMP-9 (observation): MMP-9 pre-incubated with fatty acid, elastic fibres. On the procedure:
as §4
(§6) L'effet inhibiteur de l'activité enzymatique a été déterminé de la manière suivante : les enzymes testées étaient les suivantes : MMP-2, MMP-9 ou élastase leucocytaire. L'enzyme sous sa forme activée a été incubée pendant 15 min avec différentes concentrations d'acides gras selon l'invention, puis la solution contenant l'enzyme et l'inhibiteur a été déposée sur la coupe de peau humaine et incubée 4 à 18 heures à 37°C dans une atmosphère humide.
(§7) A la fin de l'incubation, les coupes ont été colorées avec des colorants spécifiques. Le colorant de l'élastine est la + catéchine et celui des collagènes est le rouge sirius.
(§8) Les résultats obtenus ont été déterminés selon le principe de quantification suivant: les fibres élastiques ont été colorées de façon spécifique par la + catéchine, et ont été quantifiées grâce à un système morphométrique précis et automatisé. Les lames ont été observées sous microscope équipé d'une caméra. Les images générées ont été converties en niveaux de gris correspondant aux composants à étudier. Les plus petites particules ne correspondant pas à ces éléments ont été éliminées de l'analyse. Un programme spécifique a permis de calculer ensuite la surface relative occupée par les fibres. Avec les fibres élastiques on a pu calculer l'aire et également le volume occupé par celles-ci, puisque leur longueur est supérieure à leur largeur. L'aire occupée par les trousseaux collagéniques a pu être quantifiée selon la même procédure.
Dans le cas de la MMP-9, on a étudié l'hydrolyse des fibres élastiques. En effet, à l'inverse de la MMP-2, la MMP-9 possède essentiellement une activité élastinolytique in situ.
Au niveau des fibres élastiques matures du derme moyen, on a observé une hydrolyse par la MMP-9. Les fibres élastiques étaient courtes et en paquets au lieu d'être longues et bien individualisées. L'hydrolyse était de 35 % environ. […] La quantification de l'hydrolyse des fibres élastiques par la MMP-9 en fonction des différents traitements a permis de déterminer le pourcentage d'inhibition de l'activité enzymatique. Les résultats obtenus figurent dans le Tableau III suivant : Tableau III
Target sequence in this assay (P14780 107-707 limits assumed): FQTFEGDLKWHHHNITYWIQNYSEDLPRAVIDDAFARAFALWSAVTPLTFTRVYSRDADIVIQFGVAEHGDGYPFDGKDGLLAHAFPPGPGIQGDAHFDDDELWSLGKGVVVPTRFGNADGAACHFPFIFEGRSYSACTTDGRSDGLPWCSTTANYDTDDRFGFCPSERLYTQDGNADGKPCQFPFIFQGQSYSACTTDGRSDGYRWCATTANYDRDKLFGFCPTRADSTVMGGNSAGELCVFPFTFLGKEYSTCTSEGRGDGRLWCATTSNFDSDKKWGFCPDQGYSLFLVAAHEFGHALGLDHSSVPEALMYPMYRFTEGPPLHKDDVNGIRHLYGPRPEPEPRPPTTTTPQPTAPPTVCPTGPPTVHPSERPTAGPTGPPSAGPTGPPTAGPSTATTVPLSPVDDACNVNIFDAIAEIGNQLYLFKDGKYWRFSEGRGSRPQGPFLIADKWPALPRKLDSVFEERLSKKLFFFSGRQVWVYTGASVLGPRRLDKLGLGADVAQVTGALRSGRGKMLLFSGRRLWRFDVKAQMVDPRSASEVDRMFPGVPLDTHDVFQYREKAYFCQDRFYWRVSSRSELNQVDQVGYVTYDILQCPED

For assay [4], the target named is T1, MMP-2. In words: Ex vivo inhibition of enzyme activity on human skin sections: collagen bundle hydrolysis, enzyme pre-incubated with fatty acid. The assay is classed as biochemical, humaine. On the set-up: L'enzyme sous sa forme activée a été incubée pendant 15 min. As to conditions: for inhibition at 1 µM / inhibition at 10 µM: hydrolysis of collagen bundles by MMP-2, human skin sections, read-out: % d'inhibition; for hydrolyse des trousseaux collagéniques (observation): MMP-2 pre-incubated with fatty acid. On the procedure:
as §4, §6, §7, §8
On a étudié l'activité protéolytique de la MMP-2 sur les collagènes. Lorsque la MMP-2 est ajoutée sur les coupes de peau, on a pu observer une hydrolyse des trousseaux collagéniques, ceux-ci étant moins denses et moins nombreux. De plus l'épiderme était décollé. L'hydrolyse était de 34 % environ.

The target in assay [5] is T1, MMP-2. The experiment in a line: Ex vivo protection of extracellular matrix fibres: skin sections pre-incubated with fatty acid, then enzyme. The format is biochemical, humaine. On the set-up: L'enzyme sous sa forme activée a été incubée pendant 15 min. The note with it: then MMP-2; for % de protection: 10 µM.
Description: as §4, §5, §8
Les trousseaux étaient plus denses, plus épais, leurs extrémités étaient moins effilochées, le réseau apparaissait plus dense. […] La quantification des fibres a permis d'obtenir les résultats figurant dans le Tableau IV suivant : Tableau IV

For assay [6], the target named is T2, MMP-9. The description is as above. The assay is classed as biochemical, humaine. More on the design: L'enzyme sous sa forme activée a été incubée pendant 15 min. The note with it: then MMP-9; for % de protection: 10 µM.
Description: as §4, §5, §8
Target sequence in this assay (P14780 107-707 limits assumed): as above
Les résultats obtenus figurent dans le Tableau V ci-après : Tableau V

The target of the next assay is T4, MMP-1 (Homo sapiens, UniProt P03956).
T4 sequence (P03956 100-469): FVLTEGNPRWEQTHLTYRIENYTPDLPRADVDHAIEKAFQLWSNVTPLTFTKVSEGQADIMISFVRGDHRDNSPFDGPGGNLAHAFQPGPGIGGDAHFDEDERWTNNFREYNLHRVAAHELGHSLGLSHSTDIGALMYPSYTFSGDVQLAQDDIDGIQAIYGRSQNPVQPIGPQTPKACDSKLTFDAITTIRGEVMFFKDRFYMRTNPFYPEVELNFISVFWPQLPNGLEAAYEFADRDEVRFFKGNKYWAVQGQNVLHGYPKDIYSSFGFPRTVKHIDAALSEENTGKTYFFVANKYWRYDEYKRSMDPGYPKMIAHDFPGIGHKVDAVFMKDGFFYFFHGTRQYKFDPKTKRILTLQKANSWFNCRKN
The experiment in a line: Inhibition of MMP enzymatic activity, hydrolysis of fluorescent synthetic substrate. The format is biochemical. As to conditions: MMP-1, Collagénase intersticielle.

Another assay has as its target MMP-3 (Homo sapiens, UniProt P08254). Described as above. The assay is classed as biochemical. As to conditions: MMP-3, Stromélysine-1.

Sequence of MMP-3 (P08254 100-477): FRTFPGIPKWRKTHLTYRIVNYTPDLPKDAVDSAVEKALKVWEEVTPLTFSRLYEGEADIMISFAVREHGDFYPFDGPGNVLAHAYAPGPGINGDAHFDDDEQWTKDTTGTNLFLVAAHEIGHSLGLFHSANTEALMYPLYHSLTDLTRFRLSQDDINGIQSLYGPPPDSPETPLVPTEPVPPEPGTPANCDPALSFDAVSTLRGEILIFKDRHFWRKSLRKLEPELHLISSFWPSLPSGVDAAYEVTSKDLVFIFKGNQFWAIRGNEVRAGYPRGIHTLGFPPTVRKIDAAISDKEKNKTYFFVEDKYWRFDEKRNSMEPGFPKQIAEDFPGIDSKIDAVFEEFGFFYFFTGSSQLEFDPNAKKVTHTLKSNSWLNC

As a reminder, the Ki is a measure of affinity in units of concentration, obtained from inhibition or displacement. Read a high Ki as weaker binding. The inhibition is the share of the control response that was lost under treatment. As for `CC/C=C/C=C/C=C/C=C\CCCCCCCC(=O)O` [acide cis-parinarique], the Ki on MMP-2 [1] came to 8 µM. At MMP-9 [2], this compound gave a Ki of 14 µM. This compound also yielded a protection at élastase leucocytaire of 58%. Also, on MMP-9 [3], the inhibition at 1 µM turned out to be 10%, the inhibition at 10 µM amounted to 24% and the “inhibition de l'activité de la MMP-9 (observation)” value is reported as “Cette inhibition est retrouvée”. Further, the inhibition at 1 µM on MMP-2 [4] was determined as 18%. In addition, on MMP-2 [4] (10 µM), the “hydrolyse des trousseaux collagéniques (observation)” value was “inhibait moins l'activité enzymatique” and the inhibition at 10 µM was determined as 40%.
Turning to `CC/C=C/C=C/C=C/C=C/CCCCCCCC(=O)O` [acide trans-parinarique], the figures for the “% de protection” value at MMP-2 [5] and at MMP-9 [6] were 61% and 75%, respectively. The “hydrolyse des trousseaux collagéniques (observation)” value on MMP-2 [5] is listed as “hydrolyse des trousseaux collagéniques nettement moins marquées”; at MMP-2 [4] (1 µM), “l'hydrolyse a été diminuée”; at MMP-2 [4] (10 µM), “l'hydrolyse était nettement diminuée”. Also, the values for the inhibition constant (Ki) on MMP-2 [1] and at MMP-9 [2] were 24 µM and 1.9 µM, respectively. Moreover, the inhibition at 1 µM on MMP-9 [3] worked out at 16%; at MMP-2 [4], 12%. Further, the inhibition at 10 µM on MMP-9 [3] came out at 48%; on MMP-2 [4] (10 µM), 56%. Besides, the “inhibition de l'activité de la MMP-9 (observation)” value against MMP-9 [3] is reported as “inhibe l'activité de celle-ci”. In addition, the “hydrolyse des fibres élastiques (observation)” value at MMP-9 [6] is listed as “l'hydrolyse des fibres préélastiques du derme superficiel était diminuée”.
As to `CCCCCCCC/C=C/CCCCCCCC(=O)O` [acide élaïdique], the Ki on MMP-1 came to 2.7 µM; on MMP-2 [1], 4.25 µM; at MMP-9 [2], 5.8 µM; on MMP-3 it was 1.8 µM. Besides, the “% de protection” value on MMP-2 [5] is 32%; at MMP-9 [6], 98%. Besides, the “hydrolyse des trousseaux collagéniques (observation)” value at MMP-2 [5] is “La même constatation a pu être faite”. Moreover, the “hydrolyse des fibres élastiques (observation)” value at MMP-9 [6] is recorded as “l'hydrolyse des fibres élastiques matures du derme moyen par la MMP-9 était nettement diminuée”.
